Measured values from patent US20220304955A1 (Nacuity Pharmaceuticals, Inc., priority 2021, published 2022).
Structures can show the parent of a compound that is named as a salt. Blank lines part the entries; values can stand above or below the molecule they belong to. Positions of bridges follow the written chain, without caps; N, C: chain ends. Non-standard residues stand in square brackets, D forms with d. Residues, ends and D or L forms follow the SMILES beside them. *: point of attachment. Ileψ(thiazoline)Cys = CC[C@H](C)[C@H](N)C1=N[C@H](C(=O)*)CS1; dOrn = NCCC[C@@H](N)C(=O)O

Key:
Caenorhabditis elegans = Caenorhabditis elegans Lifespan assay; type: in vivo; conditions: for Median survival: from late L4 larval/young adult stage, 25 °C, strain TJ1060
Method: NAC and NACA were dissolved in sterile water then added to the molten NGM at 55° C. Media containing equivalent vehicle alone (1% v/v DMSO) was used for comparison. 1% v/v DMSO was also added to NAC and NACA plates for consistency, as DMSO itself may affect lifespan. Standard overnight culture of the Escherichia coli strain OP50 was used as the food source. Lifespan data were collected at 25 (±1) ° C. using the temperature sensitive-sterile strain TJ1060 [spe-9(hc88); rrf-3(b26)] as a proxy for wildtype. A developmentally synchronous population was obtained by transferring egg-laying adults to fresh plates at 16° C. for 4 hours. The adults were removed and the plates with eggs then transferred to 25° C. to ensure sterility. After 48 hours at 25° C., when worms were at the late L4 larval/young adult stage, 25-35 nematodes were transferred to fresh plates containing either vehicle control (1% v/v DMSO), 1 mM NAC, 10 mM NAC, 1 mM NACA, 10 mM NACA, 1 mM diNACA, and 10 mM diNACA. All plates were coded to allowing blinding of the experimenter to the treatment regime during scoring. Nematodes were scored for survival at 1 to 2-day intervals and transferred to freshly prepared plates as needed (every 2-4 days). Worms lost not due to death were recorded as censored.
Results. Data was analyzed using GraphPad Prism 9, with survival curves compared using a long-rank (Mantel-Cox) test. P values are given for pair-wise comparisons to the vehicle control population.

N27 cells [1] = experiment: Cellular ferroptosis assay, cell viability by MTT; type: cell-based, rat; conditions: for preventing ferroptosis, NAC compared with NACA: 50 μM in media or PBS, erastin 0.1-8 μM, RSL3 3-400 nM or glutamate 3-400 mM, 24 hr; for anti-ferroptotic activity on pretreatment prior to ferroptosis induction: 50 or 500 μM in PBS for 24 hours, then erastin, RSL3 or glutamate for additional 24 hours; for prevention of ferroptosis induced by erastin, RSL3 and glutamate (cell viability): erastin 2 μM, RSL3 100 nM or glutamate 100 mM, added at same time, liproxstatin-1 4-250 nM, NAC, NACA (in water), diNACA (in NMP) 8-500 μM; for anti-ferroptotic activity on post-treatment: erastin, RSL3 or glutamate for 5 hours, then 50 or 500 μM in PBS for additional 19 hours
Method: Materials and Methods. […] Cells were cultured at 37° C. with 5% CO2.

C. elegans [2] = experiment: Diethyl maleate (DEM) assay, survival of C. elegans; type: in vivo, Caenorhabditis elegans; conditions: for % alive: then 10 mM DEM, scored at 24 hours
Method: Materials and Methods. Effects of NAC, NACA and diNACA on diethyl maleate (DEM; Sigma-Aldrich)-induced toxicity in C. elegans was evaluated. (10 mM DEM alone conjugates GSH causing 50% depletion of GSH and 50% lethality after 24 hour exposure (Jenkins et al., 2020)). DEM was added to neat DMSO and added to molten NGM at 55° C. to a final concentration of 10 mM DEM and 0.5% v/v DMSO. Plates were seeded with E. coli strain OP50. Data were collected at 25 (±1) ° C. using the temperature sensitive-sterile strain TJ1060. A synchronous population was obtained by transferring egg-laying adults to fresh plates at 16° C. for 2-3 hours. The adults were removed and the plates with eggs then transferred to 25° C. to ensure sterility. After 48 hours at 25° C., when worms were at the late L4/young adult stage, 70 nematodes were transferred to fresh plates containing either vehicle control, 1 mM NAC, 10 mM NAC, 1 mM NACA, 10 mM NACA, 1 mM diNACA, 10 mM diNACA (all with 1.0% v/v DMSO). Worms were aged at 25° C. for a further 4 days and then transferred to DEM plates, 35-45 per plate, two plates per treatment. Survival, determined by touch-provoked movement, was scored at 24 hours after exposure to DEM.

C. elegans [3] = conditions: 10 mM DEM alone, 24 hour exposure; cited from earlier work
N27 cells [4] = conditions: for solvent concentration over which cell viability is reduced: rat, 24 h
Method: Viability of cells treated with water, dimethyl sulfoxide (DMSO) or NMP (0.3-20% v/v) for 24 hours. Data are means±SEM, n=3.
Materials and Methods. […] N27 cells, derived from E12 rat mesencephalic tissue (Merck, Australia), were cultured in RPMI 1640 media (ThermoFisher Scientific) supplemented with 10% fetal calf serum (Bovogen, Australia) and penicillin and streptomycin (ThermoFisher Scientific, Australia). Cells were cultured at 37° C. with 5% CO2. Cellular ferroptosis assays were used to evaluate anti-ferroptotic activity of test articles (Southon et al., 2019). Liproxstatin-1 (lip1) was used as an anti-ferroptotic control. […] Cell viability was measured by 3-[4,5-dimethylthiazol-2-yl]-2,5-diphenyltetrazolium bromide (MTT) assay, absorbance measured at 570 nm using a PowerWave XS microplate spectrophotometer (BioTek Instruments, Winooski, USA), and expressed as a percentage of control cells (Southon et al., 2019).
The toxicity profile of solvents NMP, DMSO and water were evaluated in N27 cells (FIG. 2).

C. elegans [5] = conditions: Drug Age Database listing; cited from earlier work
[6] = humans, oral dose of 600 mg; cited from earlier work
[7] = Solubility of diNACA in solvents; type: physicochemical
[8] = Bioavailability after oral administration in rat (plasma levels); type: in vivo
Method: Materials and Methods. Bioavailability of diNACA after oral administration in rat was evaluated. NACA and diNACA, separately, were suspended in phosphate-buffered saline (pH 7) and dosed to rats by oral gavage. Blood specimens were collected and processed to produce plasma. Plasma specimens were analyzed for NAC, NACA and diNACA concentration.
The thiol moiety of NAC, NACA, or diNACA and their respective internal standards oxidizes quickly in plasma through formation of disulfides. In order to determine total NAC and total NACA levels in plasma, tris(2-carboxyethyl)phosphine (TCEP) is added during the extraction to reduce disulfide bonds. Ammonium bicarbonate is added to control sample pH near neutral, as TCEP will otherwise acidify the aliquoted samples and hinder derivatization. The free analyte is then derivatized to a stable thioether using 2-chloro-1-methylpyridinium iodide (CMPI). […]
Thioether derivatives of NAC and NACA for LCMS analyses. Samples were analyzed on a Waters Acquity liquid chromatograph interfaced with a Thermo Scientific TSQ Vantage triple quadrupole mass spectrometer with ESI ionization. […]

SMILES: CC(=O)N[C@@H](CS)C(N)=O
increase in lifespan (Caenorhabditis elegans; 1 mM): minor increase | Median survival (Caenorhabditis elegans; 1 mM in NGM): 10 days | increase in lifespan (Caenorhabditis elegans; 10 mM): marked increase in lifespan | Median survival (Caenorhabditis elegans; 10 mM in NGM): 16 days | preventing ferroptosis, NAC compared with NACA (N27 cells [1]): similarly effective at preventing ferroptosis | anti-ferroptotic activity on pretreatment prior to ferroptosis induction (N27 cells [1]): did not differentiate anti-ferroptotic activity | prevention of ferroptosis induced by erastin, RSL3 and glutamate (cell viability) (N27 cells [1]; 24 hours): efficacy in the micromolar range | anti-ferroptotic activity on post-treatment (N27 cells [1]): did not differentiate anti-ferroptotic activity | rescue from DEM-induced toxicity (C. elegans [2]; 1 mM): rescue | % alive (C. elegans [2]; 1 mM pre-treatment 4 days): 91% | rescue from DEM-induced toxicity (C. elegans [2]; 10 mM): rescue | % alive (C. elegans [2]; 10 mM pre-treatment 4 days): 98%

SMILES: CCOC(=O)/C=C\C(=O)OCC [DEM, diethyl maleate]
depletion of GSH (C. elegans [3]): 50% | lethality (C. elegans [3]): 50%

SMILES: C[S+](C)[O-] [DMSO, dimethyl sulfoxide]
solvent concentration over which cell viability is reduced (N27 cells [4]): over 1.3%

SMILES: Clc1cccc(CN=C2Nc3ccccc3NC23CCNCC3)c1 [Lip1, Liproxstatin-1, reference compound]
prevention of ferroptosis induced by erastin, RSL3 and glutamate (cell viability) (N27 cells [1]; 24 hours): nanomolar efficacy

SMILES: CC(=O)N[C@@H](CS)C(=O)O [NAC, N-acetylcysteine, reference compound]
life extension of C. elegans (C. elegans [5]): 64% | Median survival (Caenorhabditis elegans; 1 mM in NGM): 10 days | increase in lifespan (Caenorhabditis elegans; 10 mM): minor increase | Median survival (Caenorhabditis elegans; 10 mM in NGM): 10 days | preventing ferroptosis, NAC compared with NACA (N27 cells [1]): similarly effective at preventing ferroptosis | anti-ferroptotic activity on pretreatment prior to ferroptosis induction (N27 cells [1]): did not differentiate anti-ferroptotic activity | prevention of ferroptosis induced by erastin, RSL3 and glutamate (cell viability) (N27 cells [1]; 24 hours): efficacy in the micromolar range | anti-ferroptotic activity on post-treatment (N27 cells [1]): did not differentiate anti-ferroptotic activity | % alive (C. elegans [2]; 1 mM pre-treatment 4 days): 80% | rescue from DEM-induced toxicity (C. elegans [2]; 10 mM): rescue | % alive (C. elegans [2]; 10 mM pre-treatment 4 days): 89% | plasma half-life [6]: 2.5 h | time after administration at which no NAC is detectable [6]: 10 to 12 h

SMILES: CN1CCCC1=O [NMP, N-methyl pyrrolidone]
solvent concentration over which cell viability is reduced (N27 cells [4]): over 0.3%

SMILES: O [Water, water]
effect of solvent on cell viability (N27 cells [4]): did not reduce cell viability

SMILES: CC(=O)Nc1ccc(O)cc1 [acetaminophen]
life extension of C. elegans (C. elegans [5]): 66%

SMILES: CC[C@H](C)[C@H](N)C1=N[C@H](C(=O)N[C@@H](CC(C)C)C(=O)N[C@H](CCC(=O)O)C(=O)N[C@H](C(=O)N[C@H]2CCCCNC(=O)[C@H](CC(N)=O)NC(=O)[C@@H](CC(=O)O)NC(=O)[C@H](Cc3cnc[nH]3)NC(=O)[C@@H](Cc3ccccc3)NC(=O)[C@H]([C@@H](C)CC)NC(=O)[C@@H](CCCN)NC2=O)[C@@H](C)CC)CS1 [bacitracin] ({Ileψ(thiazoline)Cys}-L[dE]IK[dOrn]I[dF]H[dD]N; lactam 4-C)
life extension of C. elegans (C. elegans [5]): 74%

solubility in water or DMSO ([7]; Nacuity data on file): not soluble in water or DMSO | solubility in neat DMSO ([7]; suspension, dissolved upon addition to NGM): not fully soluble in DMSO | absorption after oral administration ([8]; 200 mg/kg oral gavage, suspension in PBS pH 7): well absorbed
SMILES: CC(=O)N[C@@H](CSSC[C@H](NC(C)=O)C(N)=O)C(N)=O [diNACA, (2R,2R′)-3,3′-disulfanediyl bis(2-acetamidopropanamide)]
metabolism, plasma levels of NACA and NAC ([8]; 200 mg/kg oral diNACA compared with oral NACA): metabolized to NACA and NAC to yield greater levels for longer periods of time compared to oral dosing with NACA | increase in lifespan (Caenorhabditis elegans; 1 mM): marked increase in lifespan | Median survival (Caenorhabditis elegans; 1 mM in NGM): 18 days | increase in lifespan (Caenorhabditis elegans; 10 mM): marked increase in lifespan | Median survival (Caenorhabditis elegans; 10 mM in NGM): 18 days | lifespan of C. elegans relative to control (Caenorhabditis elegans; FIG. 8): more than doubled the lifespan | percentage lifespan extension, increase in median lifespan (Caenorhabditis elegans; versus control): 125% | anti-ferroptotic activity on pretreatment prior to ferroptosis induction (N27 cells [1]): did not differentiate anti-ferroptotic activity | concentration at which a small effect on RSL3 toxicity is seen (N27 cells [1]; diNACA solubilized in media (2-75 mM), RSL3 100 nM, 24 hours): 75 mM | concentration partially preventing erastin and glutamate-induced toxicity (N27 cells [1]; diNACA solubilized in media (2-75 mM), erastin 2 μM or glutamate 100 mM, 24 hours): ≥ 5 mM | prevention of ferroptosis induced by erastin, RSL3 and glutamate (cell viability) (N27 cells [1]; 24 hours): did not prevent ferroptosis | anti-ferroptotic activity on post-treatment (N27 cells [1]): did not differentiate anti-ferroptotic activity | rescue from DEM-induced toxicity (C. elegans [2]; 1 mM): rescue | % alive (C. elegans [2]; 1 mM pre-treatment 4 days): 95% | rescue from DEM-induced toxicity (C. elegans [2]; 10 mM): rescue | % alive (C. elegans [2]; 10 mM pre-treatment 4 days): 98%

SMILES: Cc1ccc2c(c1)sc(-c1ccc(N(C)C)cc1)[n+]2C.[Cl-] [thioflavin T]
life extension of C. elegans (C. elegans [5]): 78%
